Source: patent US9738634B2, “Heterocyclic amide compound and herbicide” (SYNGENTA PARTICIPATIONS AG, priority 2013, dated 2017)

Legend:
Assay type in all cases: in vivo
Conditions in all cases: treatment dosage 320 g/ha
barnyard grass [1] = test: Test Example 1: weedkilling efficacy, preemergent weed treatment in the submerged state; A: barnyard grass
Outline: (§1)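 Pots of alluvial soil were flooded to a 4 cm depth. Mixed weed seeds were sown and 2.5 leaf-stage rice seedlings transplanted. On sowing day, water-diluted emulsion was applied to the water surface (dose in g/ha). After 3 weeks at 25–30 °C, effects were rated.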

bulrush [2] = test: Test Example 1: weedkilling efficacy, preemergent weed treatment in the submerged state; B: bulrush
Outline: as §1

oval-leafed pondweed [3] = test: Test Example 1: weedkilling efficacy, preemergent weed treatment in the submerged state; C: oval-leafed pondweed
Outline: as §1

transplanted rice = test: Test Example 1: preemergent weed treatment in the submerged state, effect on crop; a: transplanted rice
Outline: as §1

barnyard grass [4] = test: Test Example 2: weedkilling efficacy, growth period weed treatment in the submerged state; A: barnyard grass
Outline: (§2)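 Weeds treated at the 1-2 leaf stage by application of diluted emulsion onto floodwater (4 cm depth, alluvial soil) at specified g/ha. Grown in greenhouse at 25 to 30° C; herbicidal effect rated three weeks after treatment.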

bulrush [5] = test: Test Example 2: weedkilling efficacy, growth period weed treatment in the submerged state; B: bulrush
Outline: as §2

oval-leafed pondweed [6] = test: Test Example 2: weedkilling efficacy, growth period weed treatment in the submerged state; C: oval-leafed pondweed
Outline: as §2

crabgrass [7] = test: Test Example 3: weedkilling efficacy through soil treatment; D: crabgrass
Outline: (§3)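 Crop and weed responses were judged three weeks after a uniform surface spray of the water-diluted emulsion at the given g/ha rate. Seeds sat beneath about 1.5 cm of sterilized diluvial soil, and boxes stood in a greenhouse at 25 to 30° C.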

green foxtail [8] = test: Test Example 3: weedkilling efficacy through soil treatment; E: green foxtail
Outline: as §3

barnyard grass [9] = test: Test Example 3: weedkilling efficacy through soil treatment; F: barnyard grass
Outline: as §3

wild oat [10] = test: Test Example 3: weedkilling efficacy through soil treatment; G: wild oat
Outline: as §3

black-grass [11] = test: Test Example 3: weedkilling efficacy through soil treatment; H: black-grass
Outline: as §3

Italian ryegrass [12] = test: Test Example 3: weedkilling efficacy through soil treatment; I: Italian ryegrass
Outline: as §3

common wind-grass [13] = test: Test Example 3: weedkilling efficacy through soil treatment; J: common wind-grass
Outline: as §3

Indian mallow [14] = test: Test Example 3: weedkilling efficacy through soil treatment; K: Indian mallow
Outline: as §3

redroot pigweed [15] = test: Test Example 3: weedkilling efficacy through soil treatment; L: redroot pigweed
Outline: as §3

fig-leafed goosefoot = test: Test Example 3: weedkilling efficacy through soil treatment; M: fig-leafed goosefoot
Outline: as §3

chickweed [16] = test: Test Example 3: weedkilling efficacy through soil treatment; N: chickweed
Outline: as §3

catchweed [17] = test: Test Example 3: weedkilling efficacy through soil treatment; O: catchweed
Outline: as §3

birds-eye speedwell [18] = test: Test Example 3: weedkilling efficacy through soil treatment; p: birds-eye speedwell
Outline: as §3

directly sown rice [19] = test: Test Example 3: soil treatment, effect on crop; b: directly sown rice
Outline: as §3

corn [20] = test: Test Example 3: soil treatment, effect on crop; c: corn
Outline: as §3

soybean [21] = test: Test Example 3: soil treatment, effect on crop; d: soybean
Outline: as §3

wheat [22] = test: Test Example 3: soil treatment, effect on crop; e: wheat
Outline: as §3

beet [23] = test: Test Example 3: soil treatment, effect on crop; f: beet
Outline: as §3

rapeseed [24] = test: Test Example 3: soil treatment, effect on crop; g: rapeseed
Outline: as §3

crabgrass [25] = test: Test Example 4: weedkilling efficacy by foliar treatment; D: crabgrass
Outline: (§4)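 Seeds are spot-sown into sterilized diluvial soil and covered with about 1.5 cm of soil. After 14 days' greenhouse growth at 25 to 30° C, plants are sprayed on stems and leaves with diluted emulsion at the stated g/ha rate, then scored at 3 weeks.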

green foxtail [26] = test: Test Example 4: weedkilling efficacy by foliar treatment; E: green foxtail
Outline: as §4

barnyard grass [27] = test: Test Example 4: weedkilling efficacy by foliar treatment; F: barnyard grass
Outline: as §4

wild oat [28] = test: Test Example 4: weedkilling efficacy by foliar treatment; G: wild oat
Outline: as §4

black-grass [29] = test: Test Example 4: weedkilling efficacy by foliar treatment; H: black-grass
Outline: as §4

Italian ryegrass [30] = test: Test Example 4: weedkilling efficacy by foliar treatment; I: Italian ryegrass
Outline: as §4

common wind-grass [31] = test: Test Example 4: weedkilling efficacy by foliar treatment; J: common wind-grass
Outline: as §4

Indian mallow [32] = test: Test Example 4: weedkilling efficacy by foliar treatment; K: Indian mallow
Outline: as §4

redroot pigweed [33] = test: Test Example 4: weedkilling efficacy by foliar treatment; L: redroot pigweed
Outline: as §4

chickweed [34] = test: Test Example 4: weedkilling efficacy by foliar treatment; N: chickweed
Outline: as §4

catchweed [35] = test: Test Example 4: weedkilling efficacy by foliar treatment; O: catchweed
Outline: as §4

birds-eye speedwell [36] = test: Test Example 4: weedkilling efficacy by foliar treatment; p: birds-eye speedwell
Outline: as §4

directly sown rice [37] = test: Test Example 4: foliar treatment, effect on crop; b: directly sown rice
Outline: as §4

corn [38] = test: Test Example 4: foliar treatment, effect on crop; c: corn
Outline: as §4

soybean [39] = test: Test Example 4: foliar treatment, effect on crop; d: soybean
Outline: as §4

wheat [40] = test: Test Example 4: foliar treatment, effect on crop; e: wheat
Outline: as §4

beet [41] = test: Test Example 4: foliar treatment, effect on crop; f: beet
Outline: as §4

rapeseed [42] = test: Test Example 4: foliar treatment, effect on crop; g: rapeseed
Outline: as §4

COc1cc(Cl)cc(NC(=O)C(C)(C)N2COC(C)=C(c3ccccc3)C2=O)n1 [B-2-46]
A (barnyard grass) weedkilling efficacy grade (barnyard grass [1]): 5 (weed kill ratio 90% or more, (practically complete withering)) | B (bulrush) weedkilling efficacy grade (bulrush [2]): 5 (weed kill ratio 90% or more, (practically complete withering)) | C (oval-leafed pondweed) weedkilling efficacy grade (oval-leafed pondweed [3]): 5 (weed kill ratio 90% or more, (practically complete withering)) | a (transplanted rice) effect on crop grade (transplanted rice): 0 (weed kill ratio 5% or less (practically no effect)) | A (barnyard grass) weedkilling efficacy grade (barnyard grass [4]): 5 (weed kill ratio 90% or more, (practically complete withering)) | B (bulrush) weedkilling efficacy grade (bulrush [5]): 5 (weed kill ratio 90% or more, (practically complete withering)) | C (oval-leafed pondweed) weedkilling efficacy grade (oval-leafed pondweed [6]): 5 (weed kill ratio 90% or more, (practically complete withering)) | D (crabgrass) weedkilling efficacy grade (crabgrass [7]): 5 (weed kill ratio 90% or more, (practically complete withering)) | E (green foxtail) weedkilling efficacy grade (green foxtail [8]): 5 (weed kill ratio 90% or more, (practically complete withering)) | F (barnyard grass) weedkilling efficacy grade (barnyard grass [9]): 5 (weed kill ratio 90% or more, (practically complete withering)) | G (wild oat) weedkilling efficacy grade (wild oat [10]): 3 (weed kill ratio 40% or more, less than 70%) | H (black-grass) weedkilling efficacy grade (black-grass [11]): 5 (weed kill ratio 90% or more, (practically complete withering)) | I (Italian ryegrass) weedkilling efficacy grade (Italian ryegrass [12]): 5 (weed kill ratio 90% or more, (practically complete withering)) | J (common wind-grass) weedkilling efficacy grade (common wind-grass [13]): 5 (weed kill ratio 90% or more, (practically complete withering)) | K (Indian mallow) weedkilling efficacy grade (Indian mallow [14]): 3 (weed kill ratio 40% or more, less than 70%) | L (redroot pigweed) weedkilling efficacy grade (redroot pigweed [15]): 4 (weed kill ratio 70% or more, less than 90%) | M (fig-leafed goosefoot) weedkilling efficacy grade (fig-leafed goosefoot): 4 (weed kill ratio 70% or more, less than 90%) | N (chickweed) weedkilling efficacy grade (chickweed [16]): 4 (weed kill ratio 70% or more, less than 90%) | O (catchweed) weedkilling efficacy grade (catchweed [17]): 4 (weed kill ratio 70% or more, less than 90%) | P (birds-eye speedwell) weedkilling efficacy grade (birds-eye speedwell [18]): 5 (weed kill ratio 90% or more, (practically complete withering)) | b (directly sown rice) effect on crop grade (directly sown rice [19]): 4 (weed kill ratio 70% or more, less than 90%) | c (corn) effect on crop grade (corn [20]): 1 (weed kill ratio 5% or more, less than 20%) | d (soybean) effect on crop grade (soybean [21]): 0 (weed kill ratio 5% or less (practically no effect)) | e (wheat) effect on crop grade (wheat [22]): 0 (weed kill ratio 5% or less (practically no effect)) | f (beet) effect on crop grade (beet [23]): 4 (weed kill ratio 70% or more, less than 90%) | g (rapeseed) effect on crop grade (rapeseed [24]): 4 (weed kill ratio 70% or more, less than 90%) | D (crabgrass) weedkilling efficacy grade (crabgrass [25]): 4 (weed kill ratio 70% or more, less than 90%) | E (green foxtail) weedkilling efficacy grade (green foxtail [26]): 5 (weed kill ratio 90% or more, (practically complete withering)) | F (barnyard grass) weedkilling efficacy grade (barnyard grass [27]): 4 (weed kill ratio 70% or more, less than 90%) | G (wild oat) weedkilling efficacy grade (wild oat [28]): 3 (weed kill ratio 40% or more, less than 70%) | H (black-grass) weedkilling efficacy grade (black-grass [29]): 4 (weed kill ratio 70% or more, less than 90%) | I (Italian ryegrass) weedkilling efficacy grade (Italian ryegrass [30]): 4 (weed kill ratio 70% or more, less than 90%) | J (common wind-grass) weedkilling efficacy grade (common wind-grass [31]): 5 (weed kill ratio 90% or more, (practically complete withering)) | K (Indian mallow) weedkilling efficacy grade (Indian mallow [32]): 3 (weed kill ratio 40% or more, less than 70%) | L (redroot pigweed) weedkilling efficacy grade (redroot pigweed [33]): 0 (weed kill ratio 5% or less (practically no effect)) | N (chickweed) weedkilling efficacy grade (chickweed [34]): 2 (weed kill ratio 20% or more, less than 40%) | O (catchweed) weedkilling efficacy grade (catchweed [35]): 4 (weed kill ratio 70% or more, less than 90%) | P (birds-eye speedwell) weedkilling efficacy grade (birds-eye speedwell [36]): 4 (weed kill ratio 70% or more, less than 90%) | b (directly sown rice) effect on crop grade (directly sown rice [37]): 3 (weed kill ratio 40% or more, less than 70%) | c (corn) effect on crop grade (corn [38]): 1 (weed kill ratio 5% or more, less than 20%) | d (soybean) effect on crop grade (soybean [39]): 0 (weed kill ratio 5% or less (practically no effect)) | e (wheat) effect on crop grade (wheat [40]): 0 (weed kill ratio 5% or less (practically no effect)) | f (beet) effect on crop grade (beet [41]): 4 (weed kill ratio 70% or more, less than 90%) | g (rapeseed) effect on crop grade (rapeseed [42]): 4 (weed kill ratio 70% or more, less than 90%)
